Measurements as given in patent US20250236616A1, “IMMUNOMODULATING AZALIDES” (Zoetis Services LLC, priority 2021, published 2025).

Experiments:
P. multocida = assay: MIC, P. multocida strains; assay type: cell-based; conditions: Pasteurella multocida
Text: (§1) Primary screening of the compounds of the invention included the evaluation of antibacterial activity of analogs through determination of microbial inhibition concentration (MIC) as per CLSI guidelines. The screening panel included the relevant BRD pathogens: 1) M. haemolytica (e.g., 12726, 46571 and 49023, all AHDRCC; and 33396 (ATCC)); and 2) P. multocida (e.g., 34135 and 46572 (both AHDRCC) and 43137 (ATCC)). In some instances, H. somni (A700025K) pathogens were also included in the screening panel. The AHDRCC strains originated from the Zoetis BRD/SRD surveillance program and refer to the Animal Health Development and Research Culture Collection. In addition, the screen assessed S. aureus (29213 ATCC) as a representative Gram-positive isolate, E.faecalis (19433 ATCC) as a commensal gram-positive gastrointestinal bacterium and E. coli (100, 3110 and 25922 (ATCC)) for the evaluation of efflux potential. The screening panel BRD pathogens were assessed in determining antibacterial activity of the Formula (1) compounds.
(§2) All relevant BRD pathogens were initially screened at a top concentration of 64 μg/mL of a Formula (1) compound in an eleven-point dilution series. […] If an Example was purified further, the MICs moved […] essentially two dilutions across all strains tested in the screening panel.
(§3) In-Vitro MIC Model Compounds were analyzed for antibacterial activity against a panel of animal health specific gram-positive and gram-negative clinical strains by diluting compounds in DMSO to an appropriate stock concentration to determine the Minimal Inhibitory Concentration (MIC) via a semi-automated broth micro-dilution method (CLSI reference method) with QC strains and anti-microbial agent(s). Specifically, bacteria were grown overnight on TSA w/5% sheep blood agar plates and diluted in saline buffer to a McFarland Standard 0.5, then further diluted in cation-ion adjusted Mueller Hinton Broth to a final concentration of approximately 5×10^5 CFU/mL. 100 μL of inoculated media was added to 96-well plate(s) with 3 μL of serially diluted compound in each row. Depending on strain (see CLSI reference method), bacteria were incubated 18-22 hours at 35-37° C. in ambient air, with 5% CO2 or anaerobically (up to 48 hours).

[1] = tested on: M. haemolytica challenge model; assay: Separate study, M9 versus saline control: lung lesions and mortality; assay type: in vivo; conditions: 10 mg/kg; saline control 38.9%, p=0.025
Text: BRD infection as compared to saline (T01) in the M. haemolytica challenge model. […] Additionally, reduction of biomarkers consistent with the proposed mechanism were observed.

[2] = PK study, plasma concentration; assay type: in vivo; conditions: 10 mg/kg dose
Experimental: The primary clinical endpoint for efficacy was treatment failure/success over a 14-day observation period. Clinically normal beef calves (150-200 kg) at moderate risk for BRD were dosed on arrival to the feedlot. Animals (N=114/group) received saline (T01), 5 mg/kg M9 (T02) or 10 mg/kg M9 (T03); or Zactran (T04).

[3] = tested on: BRD pathogens, M. haemolytica and P. multocida; assay: MIC screening panel, BRD pathogens (CLSI broth micro-dilution); assay type: cell-based; conditions: BRD pathogenic strains / target pathogens; read-out: MIC
Summary of the method: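 MICs were determined by CLSI broth micro-dilution in cation-adjusted Mueller Hinton Broth at about 5×10^5 CFU/mL, with QC strains included. Incubation was 18-22 h at 35-37° C. in air, 5% CO2 or anaerobically (up to 48 h) depending on strain. BRD pathogens were first tested at a top concentration of 64 μg/mL in an eleven-point dilution series.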

H. somni = assay: MIC, H. somni strains; assay type: cell-based; conditions: lung isolates at necropsy, natural BRD study, n=25
Text: as §1, §2, §3

[4] = tested on: M. haemolytica (strain: OSU-012103-BHI); assay: Bovine M. haemolytica intratracheal lung challenge model, mortality; assay type: in vivo; conditions: 6 animals
Experimental: To evaluate immunomodulation effects and potential biomarkers, a bovine M. haemolytica (strain: OSU-012103-BHI) intratracheal lung challenge model study was completed utilizing M9 treatment in the presence and absence of bacterial challenge and a Draxxin® comparator. […] Animals were administered 0.05 mL/kg saline (T01), 10 mg/kg M9 (T02); Draxxin 2.5 mg/kg (T03) and 10 mg/kg M9 (T04) by subcutaneous injection on Day-1. Dose was based on body weight. Animals were challenge on Day 0 with the exception of T04. Blood was collected longitudinally throughout the study for biomarker evaluation panel (e.g., IL-6 and CD163) including two baseline samples prior to treatment. FIG. 4A depicts the area under the curve concentrations for IL-6 protein for individual animals against percent lung lesion scores and FIG. 4B depicts the CD163 fold change area under the curve for individual animals against percent lung lesion scores. Data is represented as percent lung lesion scores against the area under the curve (AUC) for IL-6 protein (immunoassay expressed in pg/mL) and CD163 (flow cytometric mean fluorescent intensity (MFI) in fold change from baseline). In both assays, a 2-fold change is typically considered to be relevant.

IL-6 = IL-6 biomarker in bovine M. haemolytica challenge; assay type: in vivo
Experimental: Cytokine Detection—An MSD U-Plex cytokine assay was developed following the MSD U-Plex protocol guide and included biotinylated capture antibodies against: bovine Interleukin (IL)-1β (Biorad), bovine IL-6 (R&D Systems) and bovine tumor necrosis factor (TNF)-α (R&D Systems). The anti-IL-1β antibody was biotinylated using EZ-Link Sulfo-NHS-Biotin (Thermo Scientific) at a challenge ratio of 1:20 according to manufacturer instructions. Assay calibrators (Kingfisher) were diluted to a concentration of […] in control lithium heparin plasma, followed by 4-fold serial dilutions into plasma. The detection antibodies were sulfo-tagged following the MSD quick guide conjugation protocol using a challenge ratio of 1:20. Antibodies were used at the following concentrations: anti-IL-1β at 1 μg/mL, anti-IL-6 at 1 μg/mL and anti-TNF-α at 0.5 μg/mL. Cytokines were quantified according to manufacturer's instructions using a chemiluminescent readout. In brief, 0.5 mL of all biotinylated antibodies were diluted to 10 μg/mL with Diluent 100 and paired to their respective linkers by adding 750 μL of supplied Linker solution and incubated for 30 minutes followed by addition of Stop solution for another 30 minutes. […] Plates were washed a further three times before addition of 150 μL 2X Read buffer and read immediately on the SI6000 instrument (MSD). […]

[5] = P. multocida 46572, murine efficacy challenge strain

`CC[C@H]1OC(=O)[C@H](C)[C@@H](O[C@H]2C[C@@](C)(OC)[C@](O)(CN3CCCCC3)[C@H](C)O2)[C@H](C)[C@@H](O[C@@H]2O[C@H](C)C[C@H](N(C)S(=O)(=O)c3ccc(Cl)cc3)[C@H]2O)[C@](C)(O)C[C@@H](C)CN[C@H](C)[C@@H](O)[C@]1(C)O` [Example C-4, 4-chloro-N-((2S,3R,4S,6R)-2-(((2R,3S,4R,5R,8R,10R,11R,12S,13S,14R)-2-ethyl-3,4,10-trihydroxy-13-(((2R,4R,5S,6S)-5-hydroxy-4-methoxy-4,6-dimethyl-5-(piperidin-1-ylmethyl)tetrahydro-2H-pyran-2-yl)oxy)-3,5,8, 10, 12, 14-hexamethyl-15-oxo-1-oxa-6-azacyclopentadecan-11-yl)oxy)-3-hydroxy-6-methyltetrahydro-2H-pyran-4-yl)-N-methylbenzenesulfonamide] gave an MIC (P. multocida; P. multocida 43137) greater than 128 µg/mL and an MIC (P. multocida; [5]) greater than 128 µg/mL.
In the case of `CC[C@H]1OC(=O)[C@H](C)[C@@H](O)[C@H](C)[C@@H](O[C@@H]2O[C@H](C)C[C@H](N(C)S(=O)(=O)c3ccccc3)[C@H]2Oc2ccc(OC)cc2)[C@](C)(O)C[C@@H](C)CN[C@H](C)[C@@H](O)[C@]1(C)O` [Example A-9, N-((2S,3R,4S,6R)-2-(((2R,3S,4R,5R,8R,10R,11R,12S,13S,14R)-2-ethyl-3,4,10,13-tetrahydroxy-3,5,8,10, 12, 14-hexamethyl-15-oxo-1-oxa-6-azacyclopentadecan-11-yl)oxy)-3-(4-methoxyphenoxy)-6-methyltetrahydro-2H-pyran-4-yl)-N-methylbenzenesulfonamide], the MIC (P. multocida; P. multocida 43137) is reported as greater than 64 µg/mL and the MIC (P. multocida; [5]) is reported as greater than 64 µg/mL.
`CC[C@H]1OC(=O)[C@H](C)[C@@H](O[C@H]2C[C@@](C)(OC)[C@](O)(CN3CCCCC3)[C@H](C)O2)[C@H](C)[C@@H](O[C@@H]2O[C@H](C)C[C@H](N(C)S(=O)(=O)Nc3ccc(C(F)(F)F)cc3)[C@H]2O)[C@](C)(O)C[C@@H](C)CN[C@H](C)[C@@H](O)[C@]1(C)O` [Example C-11, (2R,3S,4R,5R,8R,10R,11R,12S, 13S, 14R)-2-ethyl-3,4, 10-trihydroxy-13-[(2R,4R,5S,6S)-5-hydroxy-4-methoxy-4,6-dimethyl-5-(piperidin-1-ylmethyl)oxan-2-yl]oxy-11-[(2S,3R,4S,6R)-3-hydroxy-6-methyl-4-[methyl-[[4-(trifluoromethyl)phenyl]sulfamoyl]amino]oxan-2-yl]oxy-3,5,8, 10, 12, 14-hexamethyl-15-oxo-1-oxa-6-azacyclopentadecane] showed an MIC (P. multocida; P. multocida 43137) greater than 64 µg/mL and an MIC (P. multocida; [5]) greater than 64 µg/mL.
With `CCCNC[C@]1(O)[C@H](C)O[C@@H](O[C@H]2[C@H](C)[C@@H](O[C@@H]3O[C@H](C)C[C@H](N(C)S(=O)(=O)Nc4ccc(C(F)(F)F)cc4)[C@H]3O)[C@](C)(O)C[C@@H](C)CN[C@H](C)[C@@H](O)[C@](C)(O)[C@@H](CC)OC(=O)[C@@H]2C)C[C@@]1(C)OC` [Example B-50, (2R,3S,4R,5R,8R,10R,11R,12S,13S, 14R)-2-ethyl-3,4,10-trihydroxy-13-[(2R,4R,5S,6S)-5-hydroxy-4-methoxy-4,6-dimethyl-5-(propylaminomethyl)oxan-2-yl]oxy-11-[(2S,3R,4S,6R)-3-hydroxy-6-methyl-4-[methyl-[[4-(trifluoromethyl)phenyl]sulfamoyl]amino]oxan-2-yl]oxy-3,5,8, 10, 12, 14-hexamethyl-15-oxo-1-oxa-6-azacyclopentadecane] the MIC (P. multocida; P. multocida 43137) was greater than 64 µg/mL and the MIC (P. multocida; [5]) was greater than 64 µg/mL.
With `CCCNC[C@]1(O)[C@H](C)O[C@@H](O[C@H]2[C@H](C)[C@@H](O[C@@H]3O[C@H](C)C[C@H](N(C)S(=O)(=O)c4ccc(C)cc4)[C@H]3O)[C@](C)(O)C[C@@H](C)CN[C@H](C)[C@@H](O)[C@](C)(O)[C@@H](CC)OC(=O)[C@@H]2C)C[C@@]1(C)OC` [Example B-26, N-((2S,3R,4S,6R)-2-(((2R,3S,4R,5R,8R,10R,11R,12S,13S,14R)-2-ethyl-3,4,10-trihydroxy-13-(((2R,4R,5S,6S)-5-hydroxy-4-methoxy-4,6-dimethyl-5-((propylamino)methyl)tetrahydro-2H-pyran-2-yl)oxy)-3,5,8,10,12,14-hexamethyl-15-oxo-1-oxa-6-azacyclopentadecan-11-yl)oxy)-3-hydroxy-6-methyltetrahydro-2H-pyran-4-yl)-N,4-dimethylbenzenesulfonamide] the MIC (P. multocida; P. multocida 43137) was greater than 64 µg/mL and the MIC (P. multocida; [5]) was greater than 64 µg/mL.
In the case of `CCCNC[C@]1(O)[C@H](C)O[C@@H](O[C@H]2[C@H](C)[C@@H](O[C@@H]3O[C@H](C)C[C@H](NC)[C@H]3O)[C@](C)(O)C[C@@H](C)CN[C@H](C)[C@@H](O)[C@](C)(O)[C@@H](CC)OC(=O)[C@@H]2C)C[C@@]1(C)OC` [Example M9, (2R,3S,4R,5R,8R,10R,11R,12S,13S,14R)-2-ethyl-3,4, 10-trihydroxy-13-(((2R,4R,5S,6S)-5-hydroxy-4-methoxy-4,6-dimethyl-5-((propylamino)methyl)-tetrahydro-2H-pyran-2-yl)oxy)-11-(((2S,3R,4S,6R)-3-hydroxy-6-methyl-4-(methylamino)tetrahydro-2H-pyran-2-yl)oxy)-3,5,8,10,12,14-hexamethyl-1-oxa-6-azacyclopentadecan-15-one], the Mortality [1] is reported as 13%, the maximum plasma concentration [2] is reported as 5 µg/mL and the MIC [3] is reported as no more than 64 µg/mL. For the same compound, the “MIC Range” value (H. somni) was 8 to 64 µg/mL, the Mortality ([4]; M. haemolytica challenge Day 0, subcutaneous Day -1, M9 10 mg/kg, Draxxin 2.5 mg/kg) was 1/6 and the Mortality ([4]; No challenge, M9 10 mg/kg subcutaneous Day -1) was 0/6. The IL-6 levels (IL-6) was “significantly reduced IL-6 levels”.
